Assay results from the supplement of paper PMC10307832.

Tests used:
Test in all cases: relative viability (nuclei count vs DMSO), 5 days (fraction); higher = more cells survive
FG-4592 + AZD7762 = compound: Cc1nc(C(=O)NCC(=O)O)c(O)c2ccc(Oc3ccccc3)cc12 [FG-4592] + NC(=O)Nc1cc(-c2cccc(F)c2)sc1C(=O)N[C@H]1CCCNC1 [AZD7762] (partner 0.2 µM)
In short: (§1)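 Lung cancer cell lines were pin-tool dosed in 1536-well plates on the day after seeding, with either a lone drug or a fixed anchor-drug dose plus five library-drug doses (not always all listed) in √10 steps. Nuclei were counted on 4× images after 5 days. Relative viability is the ratio of treated-well to vehicle-well nuclei counts, with each value a median of duplicate plates.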

IU1-47 + Pictilisib = compound: CC1=CC(=C(N1C2=CC=C(C=C2)Cl)C)C(=O)CN3CCCCC3 [IU1-47] + CS(=O)(=O)N1CCN(Cc2cc3nc(-c4cccc5[nH]ncc45)nc(N4CCOCC4)c3s2)CC1 [Pictilisib] (partner 1 µM)
In short: as §1

IU1-47 + Decitabine = compound: CC1=CC(=C(N1C2=CC=C(C=C2)Cl)C)C(=O)CN3CCCCC3 [IU1-47] + Nc1ncn([C@H]2C[C@H](O)[C@@H](CO)O2)c(=O)n1 [Decitabine] (partner 2 µM)
In short: as §1

FG-4592 + Trametinib = compound: Cc1nc(C(=O)NCC(=O)O)c(O)c2ccc(Oc3ccccc3)cc12 [FG-4592] + CC(=O)Nc1cccc(-n2c(=O)n(C3CC3)c(=O)c3c(Nc4ccc(I)cc4F)n(C)c(=O)c(C)c32)c1 [Trametinib] (partner 0.02 µM)
In short: as §1

Cell Line	relative viability (FG-4592 + AZD7762; first compound 0.08 µM)	relative viability (FG-4592 + AZD7762; first compound 0.253 µM)	relative viability (FG-4592 + AZD7762; first compound 0.8 µM)	relative viability (FG-4592 + AZD7762; first compound 2.53 µM)	relative viability (FG-4592 + AZD7762; first compound 8 µM)	relative viability (IU1-47 + Pictilisib; first compound 0.08 µM)	relative viability (IU1-47 + Pictilisib; first compound 0.253 µM)	relative viability (IU1-47 + Pictilisib; first compound 0.8 µM)	relative viability (IU1-47 + Pictilisib; first compound 2.53 µM)	relative viability (IU1-47 + Pictilisib; first compound 8 µM)	relative viability (IU1-47 + Decitabine; first compound 0.08 µM)	relative viability (IU1-47 + Decitabine; first compound 0.253 µM)	relative viability (IU1-47 + Decitabine; first compound 0.8 µM)	relative viability (IU1-47 + Decitabine; first compound 2.53 µM)	relative viability (IU1-47 + Decitabine; first compound 8 µM)	relative viability (FG-4592 + Trametinib; first compound 0.08 µM)	relative viability (FG-4592 + Trametinib; first compound 0.253 µM)	relative viability (FG-4592 + Trametinib; first compound 0.8 µM)	relative viability (FG-4592 + Trametinib; first compound 2.53 µM)	relative viability (FG-4592 + Trametinib; first compound 8 µM)
LOU-NH91	0.755	0.733	0.717	0.723	0.732	0.502	0.529	0.429	0.512	0.51	0.909	0.854	0.797	0.816	0.797	0.807	0.766	0.724	0.773	0.748
LU99A	0.37	0.387		0.381	0.346	0.35	0.337	0.275	0.312	0.298	0.968	0.824	0.852	0.883	0.768	0.548	0.467		0.503	0.523
LXF-289	1.12	1.01	1.27	1.08	1.34	0.8	0.754	0.772	0.822	0.688	0.377	0.367	0.397	0.367	0.346	0.676	0.68	0.682	0.712	0.731
NCI-H23	0.243	0.257	0.206	0.285	0.164	0.43	0.492	0.44	0.543	0.435	0.347		0.312	0.319	0.302	0.381	0.38	0.37	0.394	0.327
NCI-H322M		0.518	0.497	0.629	0.43	0.56	0.478	0.514	0.517	0.513	0.776	0.807	0.645	0.683	0.652		0.482	0.475	0.497	0.438
NCI-H358	0.44	0.502	0.55	0.502	0.458	0.287	0.323	0.352		0.366	0.242	0.204	0.2	0.201	0.21	0.138	0.135	0.122	0.16	0.124
NCI-H441	1.26	0.852	1.46	1	0.978	0.483	0.486	0.464	0.504	0.43	0.254	0.257	0.212	0.254	0.234	0.497	0.433	0.401	0.3	0.497
NCI-H460	0.698	0.583	0.462	0.725	0.668	0.385	0.284	0.381	0.359	0.345	0.536	0.494	0.563	0.51	0.579	0.163	0.13	0.127	0.0958	0.129
NCI-H596	1.1	1.08		1.15	0.952	0.393	0.367	0.405	0.429	0.393	1.05		1.03	1.09	0.977	0.861	0.804		0.842	0.564
NCI-H647	0.431	0.429	0.367	0.422	0.532	0.467	0.52	0.453		0.359	0.454	0.487	0.462	0.39	0.4	0.444	0.453	0.336	0.448	0.333
NCI-H650	1.06	1.03	1.09	1.04	0.755	0.882	1	0.932	0.968	0.832	0.369	0.333	0.27	0.334	0.291	1.06	0.936	0.916	1	0.838
NCI-H727	0.51	0.555	0.763	0.563	0.482	0.33		0.356	0.264	0.355	0.875	0.894	0.989	0.722	0.866	0.363	0.335	0.352	0.357	0.38
NCI-H838	0.899	0.888	0.976	0.981	0.916	0.391	0.462	0.485	0.436	0.425	0.423	0.451	0.471	0.501	0.449	0.497	0.51	0.412	0.473	0.46
NCI-H1355	0.907	0.669		0.809	0.723	0.489	0.457	0.363	0.251	0.415	0.364	0.342	0.348		0.349	0.462	0.455		0.421	0.337
NCI-H1395	0.446	0.396	0.413	0.385	0.396	0.597	0.65	0.569		0.433	0.687	0.802	0.699	0.704	0.713	0.961	1.01	0.936	1.03	0.773
NCI-H1437	1.19	1.08	1.17	0.995	1.08	0.403	0.428	0.423	0.413	0.35	0.573	0.513	0.658	0.63	0.547	0.539	0.414	0.473	0.47	0.301
NCI-H1651	0.474	0.455	0.433	0.442	0.455	0.526	0.575	0.573		0.468	0.627	0.672	0.522	0.357	0.579	0.85	0.836	0.76	0.774	0.82

Cell Line	relative viability (FG-4592 + AZD7762; first compound 0.08 µM)	relative viability (FG-4592 + AZD7762; first compound 0.253 µM)	relative viability (FG-4592 + AZD7762; first compound 0.8 µM)	relative viability (FG-4592 + AZD7762; first compound 2.53 µM)	relative viability (FG-4592 + AZD7762; first compound 8 µM)	relative viability (IU1-47 + Pictilisib; first compound 0.08 µM)	relative viability (IU1-47 + Pictilisib; first compound 0.253 µM)	relative viability (IU1-47 + Pictilisib; first compound 0.8 µM)	relative viability (IU1-47 + Pictilisib; first compound 2.53 µM)	relative viability (IU1-47 + Pictilisib; first compound 8 µM)	relative viability (IU1-47 + Decitabine; first compound 0.08 µM)	relative viability (IU1-47 + Decitabine; first compound 0.253 µM)	relative viability (IU1-47 + Decitabine; first compound 0.8 µM)	relative viability (IU1-47 + Decitabine; first compound 2.53 µM)	relative viability (IU1-47 + Decitabine; first compound 8 µM)	relative viability (FG-4592 + Trametinib; first compound 0.08 µM)	relative viability (FG-4592 + Trametinib; first compound 0.253 µM)	relative viability (FG-4592 + Trametinib; first compound 0.8 µM)	relative viability (FG-4592 + Trametinib; first compound 2.53 µM)	relative viability (FG-4592 + Trametinib; first compound 8 µM)
NCI-H1666	0.81	0.764	0.899	0.9	0.875	0.436	0.452	0.455	0.448	0.407	0.802	0.714	0.718	0.738	0.784	0.88	0.856	0.922	0.776	0.711
NCI-H1734	0.63	0.474	0.456	0.547	0.427	0.463	0.442	0.464		0.427	0.6	0.541	0.548	0.5	0.419	0.719	0.631	0.618	0.733	0.559
NCI-H1755	0.408	0.621	0.361	0.491	0.446	0.433	0.419	0.503	0.334	0.318	0.712	0.694	0.653	0.797	0.766	0.792	0.74	0.729	0.827	0.725
NCI-H1792	0.81	0.637		0.834	0.654	0.26	0.318	0.253	0.165	0.286	0.625	0.639	0.611	0.497	0.371	0.429	0.435		0.414	0.375
NCI-H1793		0.48		0.696	0.37	0.284	0.293	0.363		0.262	0.53		0.538	0.507	0.426		0.453		0.434	0.4
NCI-H1915	0.672	0.652	0.715	0.637	0.669	0.854	0.915	0.977		0.985	0.269	0.256	0.27	0.25	0.247	0.304	0.266	0.274	0.287	0.258
NCI-H1944	0.479	0.675	0.368	0.509	0.471	0.361	0.371	0.335		0.356	0.446	0.474	0.419	0.426	0.388	0.426	0.409	0.464	0.422	0.371
NCI-H1975	0.782	0.644	0.684	0.712	0.709	0.274	0.293	0.305	0.281	0.256	0.397	0.381	0.585	0.361	0.378	0.33	0.292	0.337	0.24	0.184
NCI-H1993	0.769	0.723		0.892	0.56	0.899	0.769	0.86	0.913	0.821	0.602	0.641	0.628	0.687	0.537	0.556	0.516		0.479	0.507
NCI-H2085	0.983	0.956	0.905	0.992	0.893	0.445	0.426	0.422	0.47	0.447	0.54	0.549	0.566	0.519	0.478	0.48	0.539	0.718	0.629	0.516
NCI-H2087	1.34	1.24	1.32		1.38	0.884	0.865	1.11	0.452	0.83	0.317	0.256	0.311	0.228	0.23	0.224	0.19	0.198		0.235
NCI-H2126	1.04	0.951	0.918	1.06	1.01	0.47	0.477	0.52	0.382	0.493	0.564	0.584	0.599	0.544	0.583	0.586	0.576	0.455	0.534	0.476
NCI-H2170	0.755	0.834	0.816	0.817	0.643	0.309	0.308	0.287	0.305	0.331	0.516	0.529	0.498	0.482	0.555	0.874	0.886	0.858	0.946	0.637
NCI-H2347	0.72	0.546	0.724	0.85	0.744	0.505	0.651	0.446	0.448	0.457	0.662	0.663	0.609	0.615	0.581	0.315	0.323	0.267	0.326	0.28
NCI-H2405	0.659	0.642	0.756	0.649	0.592	0.552	0.49	0.524		0.431	0.839	0.762	0.769	0.779	0.765	0.548	0.57	0.507	0.587	0.411
NCI-H3122	0.985	0.922	1.06	1.02	0.952	0.556	0.615	0.666	0.625	0.581	0.416	0.402	0.517	0.491	0.449	0.19	0.244	0.196	0.264	0.119
PC-3 [JPC-3]	0.802	0.762		0.726	0.8	0.756	0.745	0.852		0.734	0.905	0.935	0.886	0.834	0.888	0.773	0.601		0.72	0.844
